Reference: ChEMBL document CHEMBL5463729, “Data for DCP probe BAY 1753011” (2023)

Experiments:
[1] = target: Serine/threonine-protein kinase 25 (Homo sapiens) (UniProt O00506); assay: Inhibition of STK25(h) at 10.0 µM in the Eurofins Kinase panel; details: Compound concentration 10.0 uM
[2] = target: DNA-dependent protein kinase catalytic subunit (Homo sapiens) (UniProt P78527); assay: Inhibition of DNA-PK(h) at 10.0 µM in the Eurofins Kinase panel; details: Compound concentration 10.0 uM
[3] = target: Serine/threonine-protein kinase Nek6 (Homo sapiens) (UniProt Q9HC98); assay: Inhibition of NEK6(h) at 10.0 µM in the Eurofins Kinase panel; details: Compound concentration 10.0 uM
[4] = target: Serine/threonine-protein kinase STK11 (Homo sapiens) (UniProt Q15831); assay: Inhibition of LKB1(h) at 10.0 µM in the Eurofins Kinase panel; details: Compound concentration 10.0 uM
[5] = target: Tyrosine-protein kinase Fyn (Homo sapiens) (UniProt P06241); assay: Inhibition of Fyn(h) at 10.0 µM in the Eurofins Kinase panel; details: Compound concentration 10.0 uM
Chain of Tyrosine-protein kinase Fyn (Homo sapiens) (P06241 2-537 limits assumed): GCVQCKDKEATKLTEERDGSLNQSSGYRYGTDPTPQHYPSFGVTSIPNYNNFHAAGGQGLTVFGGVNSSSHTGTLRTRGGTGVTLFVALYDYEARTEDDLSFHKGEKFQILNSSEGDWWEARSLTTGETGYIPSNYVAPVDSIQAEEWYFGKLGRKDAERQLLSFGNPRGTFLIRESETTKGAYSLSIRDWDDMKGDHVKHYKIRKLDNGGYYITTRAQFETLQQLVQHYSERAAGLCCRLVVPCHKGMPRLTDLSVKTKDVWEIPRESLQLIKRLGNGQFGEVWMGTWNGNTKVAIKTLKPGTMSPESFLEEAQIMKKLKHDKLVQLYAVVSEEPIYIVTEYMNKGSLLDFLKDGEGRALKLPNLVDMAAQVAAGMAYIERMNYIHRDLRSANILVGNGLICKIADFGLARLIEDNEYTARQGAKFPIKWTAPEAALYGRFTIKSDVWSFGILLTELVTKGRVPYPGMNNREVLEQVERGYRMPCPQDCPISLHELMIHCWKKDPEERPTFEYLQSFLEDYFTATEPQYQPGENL

[6] = target: Rhodopsin kinase GRK1 (Homo sapiens) (UniProt Q15835); assay: Inhibition of GRK1(h) at 10.0 µM in the Eurofins Kinase panel; details: Compound concentration 10.0 uM
Chain of Rhodopsin kinase GRK1 (Homo sapiens) (Q15835 whole entry): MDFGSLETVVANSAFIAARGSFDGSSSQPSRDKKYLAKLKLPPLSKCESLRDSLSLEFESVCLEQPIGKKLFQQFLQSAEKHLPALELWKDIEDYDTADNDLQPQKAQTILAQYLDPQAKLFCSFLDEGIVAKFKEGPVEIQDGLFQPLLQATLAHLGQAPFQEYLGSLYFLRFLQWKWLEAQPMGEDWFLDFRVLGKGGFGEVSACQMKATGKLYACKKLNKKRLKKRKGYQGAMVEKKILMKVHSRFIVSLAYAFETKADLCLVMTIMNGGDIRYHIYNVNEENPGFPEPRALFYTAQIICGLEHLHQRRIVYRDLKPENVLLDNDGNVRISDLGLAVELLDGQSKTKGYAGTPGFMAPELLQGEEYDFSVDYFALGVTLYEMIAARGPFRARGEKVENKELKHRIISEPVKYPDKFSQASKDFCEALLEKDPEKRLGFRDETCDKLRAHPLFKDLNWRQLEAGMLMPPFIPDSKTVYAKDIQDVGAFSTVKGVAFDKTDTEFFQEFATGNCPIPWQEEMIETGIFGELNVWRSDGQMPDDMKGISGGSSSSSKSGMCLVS

[7] = target: Ephrin type-A receptor 4 (Homo sapiens) (UniProt P54764); assay: Inhibition of EphA4(h) at 10.0 µM in the Eurofins Kinase panel; details: Compound concentration 10.0 uM
[8] = target: Cyclin-dependent kinase 2/cyclin E1 (Homo sapiens) (UniProt P24864+P24941); assay: Inhibition of CDK2/cyclinE(h) at 10.0 µM in the Eurofins Kinase panel; type: protein-complex assay; details: Compound concentration 10.0 uM
[9] = target: Testis-specific serine/threonine-protein kinase 2 (Homo sapiens) (UniProt Q96PF2); assay: Inhibition of TSSK2(h) at 10.0 µM in the Eurofins Kinase panel; details: Compound concentration 10.0 uM
Chain of Testis-specific serine/threonine-protein kinase 2 (Homo sapiens) (Q96PF2 whole entry): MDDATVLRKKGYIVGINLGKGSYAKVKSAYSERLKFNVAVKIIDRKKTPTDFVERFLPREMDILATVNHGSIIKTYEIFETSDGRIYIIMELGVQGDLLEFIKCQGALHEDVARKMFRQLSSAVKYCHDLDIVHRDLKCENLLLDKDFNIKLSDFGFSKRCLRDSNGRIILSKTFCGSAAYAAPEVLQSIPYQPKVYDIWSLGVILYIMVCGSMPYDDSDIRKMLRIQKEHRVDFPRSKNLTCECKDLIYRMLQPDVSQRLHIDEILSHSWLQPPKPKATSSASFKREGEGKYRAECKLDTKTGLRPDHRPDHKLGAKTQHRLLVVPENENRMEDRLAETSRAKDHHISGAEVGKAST

[10] = target: Ephrin type-A receptor 3 (Homo sapiens) (UniProt P29320); assay: Inhibition of EphA3(h) at 10.0 µM in the Eurofins Kinase panel; details: Compound concentration 10.0 uM
[11] = target: BMP-2-inducible protein kinase (Homo sapiens) (UniProt Q9NSY1); assay: Inhibition of BIKe(h) at 10.0 µM in the Eurofins Kinase panel; details: Compound concentration 10.0 uM
[12] = target: Mitogen-activated protein kinase kinase kinase kinase 4 (Homo sapiens) (UniProt O95819); assay: Inhibition of MAP4K4(h) at 10.0 µM in the Eurofins Kinase panel; details: Compound concentration 10.0 uM
Chain of Mitogen-activated protein kinase kinase kinase kinase 4 (Homo sapiens) (O95819 2-1239 limits assumed): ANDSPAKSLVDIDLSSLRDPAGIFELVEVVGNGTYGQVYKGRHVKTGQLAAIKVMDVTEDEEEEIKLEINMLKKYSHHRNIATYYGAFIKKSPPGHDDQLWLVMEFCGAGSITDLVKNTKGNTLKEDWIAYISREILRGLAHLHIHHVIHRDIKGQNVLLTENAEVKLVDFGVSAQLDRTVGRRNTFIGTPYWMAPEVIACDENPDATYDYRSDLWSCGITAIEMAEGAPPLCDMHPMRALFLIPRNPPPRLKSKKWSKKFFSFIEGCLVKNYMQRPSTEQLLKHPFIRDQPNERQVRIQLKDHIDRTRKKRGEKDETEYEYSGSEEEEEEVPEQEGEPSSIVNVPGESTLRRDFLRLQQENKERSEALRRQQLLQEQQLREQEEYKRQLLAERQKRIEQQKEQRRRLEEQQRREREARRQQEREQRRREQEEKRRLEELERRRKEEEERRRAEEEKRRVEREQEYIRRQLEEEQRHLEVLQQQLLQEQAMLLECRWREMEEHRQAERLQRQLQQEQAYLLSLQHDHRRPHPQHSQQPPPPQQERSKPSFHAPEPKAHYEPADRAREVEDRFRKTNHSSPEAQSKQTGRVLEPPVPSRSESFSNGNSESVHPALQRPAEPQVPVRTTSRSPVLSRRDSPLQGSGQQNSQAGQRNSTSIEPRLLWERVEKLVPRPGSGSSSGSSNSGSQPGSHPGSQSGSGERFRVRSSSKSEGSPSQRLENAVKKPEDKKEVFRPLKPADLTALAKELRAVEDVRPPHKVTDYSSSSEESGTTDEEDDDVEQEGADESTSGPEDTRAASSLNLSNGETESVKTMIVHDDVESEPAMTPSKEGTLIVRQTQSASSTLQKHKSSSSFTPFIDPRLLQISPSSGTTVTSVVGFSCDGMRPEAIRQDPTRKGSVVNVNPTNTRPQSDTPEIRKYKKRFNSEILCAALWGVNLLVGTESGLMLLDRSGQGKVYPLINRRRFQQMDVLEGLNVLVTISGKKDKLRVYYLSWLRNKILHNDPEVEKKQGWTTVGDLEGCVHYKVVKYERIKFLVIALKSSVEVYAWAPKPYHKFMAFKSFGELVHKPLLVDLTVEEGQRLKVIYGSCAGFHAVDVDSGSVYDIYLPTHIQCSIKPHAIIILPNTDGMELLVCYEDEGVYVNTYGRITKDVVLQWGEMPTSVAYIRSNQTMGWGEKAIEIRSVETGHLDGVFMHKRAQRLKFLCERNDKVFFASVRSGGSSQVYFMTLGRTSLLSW

[13] = target: Sigma intracellular receptor 2 (Homo sapiens) (UniProt Q5BJF2); details: Compound concentration 10.0 uM
Chain of Sigma intracellular receptor 2 (Homo sapiens) (Q5BJF2 whole entry): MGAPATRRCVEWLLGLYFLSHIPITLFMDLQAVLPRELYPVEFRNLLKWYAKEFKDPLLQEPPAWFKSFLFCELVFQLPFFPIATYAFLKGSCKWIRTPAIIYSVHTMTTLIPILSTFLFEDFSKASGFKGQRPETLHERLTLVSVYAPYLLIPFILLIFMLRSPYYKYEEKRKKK

[14] = target: Mast/stem cell growth factor receptor Kit (Homo sapiens) (UniProt P10721); assay: Inhibition of cKit(h) at 10.0 µM in the Eurofins Kinase panel; details: Compound concentration 10.0 uM
[15] = target: Sodium-dependent serotonin transporter (Homo sapiens) (UniProt P31645); details: Compound concentration 10.0 uM
Chain of Sodium-dependent serotonin transporter (Homo sapiens) (P31645 whole entry, looked up): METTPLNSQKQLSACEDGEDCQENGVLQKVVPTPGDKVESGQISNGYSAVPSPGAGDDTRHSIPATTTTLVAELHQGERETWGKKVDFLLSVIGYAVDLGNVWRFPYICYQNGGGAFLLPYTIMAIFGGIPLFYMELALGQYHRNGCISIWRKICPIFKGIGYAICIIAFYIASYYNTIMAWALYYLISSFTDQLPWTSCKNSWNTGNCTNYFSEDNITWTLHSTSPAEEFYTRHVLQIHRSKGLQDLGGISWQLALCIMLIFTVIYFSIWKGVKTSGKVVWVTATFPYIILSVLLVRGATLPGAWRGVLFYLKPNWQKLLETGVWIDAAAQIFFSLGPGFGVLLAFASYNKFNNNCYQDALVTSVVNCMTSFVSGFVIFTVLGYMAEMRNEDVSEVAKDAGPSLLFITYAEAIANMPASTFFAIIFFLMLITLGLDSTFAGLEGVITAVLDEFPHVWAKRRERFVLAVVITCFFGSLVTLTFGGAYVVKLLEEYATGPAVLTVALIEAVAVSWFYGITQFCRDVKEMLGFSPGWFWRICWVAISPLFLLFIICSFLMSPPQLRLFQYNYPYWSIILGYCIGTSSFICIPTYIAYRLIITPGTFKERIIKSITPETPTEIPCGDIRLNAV

[16] = target: T1, Vasopressin V1b receptor (Homo sapiens) (UniProt P47901); assay: Inhibition of Vasopressin V1B at 10 µM in the Eurofins-Panlabs radioligand binding assay (Eurofins_assay_287560); design: ligand concentration 1 nM
T1 sequence (whole entry): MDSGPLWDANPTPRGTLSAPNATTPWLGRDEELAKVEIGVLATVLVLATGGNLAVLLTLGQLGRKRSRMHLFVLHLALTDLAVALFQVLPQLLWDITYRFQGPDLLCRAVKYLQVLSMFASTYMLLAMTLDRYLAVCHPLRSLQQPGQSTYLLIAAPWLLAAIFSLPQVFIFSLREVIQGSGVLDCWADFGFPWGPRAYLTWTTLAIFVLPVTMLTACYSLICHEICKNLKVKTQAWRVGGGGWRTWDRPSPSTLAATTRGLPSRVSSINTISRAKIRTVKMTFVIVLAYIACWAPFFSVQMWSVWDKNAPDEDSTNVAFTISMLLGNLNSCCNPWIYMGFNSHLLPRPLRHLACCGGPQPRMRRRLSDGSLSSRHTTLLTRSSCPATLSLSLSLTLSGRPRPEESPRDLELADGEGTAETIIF

[17] = target: Calcium/calmodulin-dependent protein kinase type 1G (Homo sapiens) (UniProt Q96NX5); assay: Inhibition of CaMKIgamma(h) at 10.0 µM in the Eurofins Kinase panel; details: Compound concentration 10.0 uM
Chain of Calcium/calmodulin-dependent protein kinase type 1G (Homo sapiens) (Q96NX5 whole entry): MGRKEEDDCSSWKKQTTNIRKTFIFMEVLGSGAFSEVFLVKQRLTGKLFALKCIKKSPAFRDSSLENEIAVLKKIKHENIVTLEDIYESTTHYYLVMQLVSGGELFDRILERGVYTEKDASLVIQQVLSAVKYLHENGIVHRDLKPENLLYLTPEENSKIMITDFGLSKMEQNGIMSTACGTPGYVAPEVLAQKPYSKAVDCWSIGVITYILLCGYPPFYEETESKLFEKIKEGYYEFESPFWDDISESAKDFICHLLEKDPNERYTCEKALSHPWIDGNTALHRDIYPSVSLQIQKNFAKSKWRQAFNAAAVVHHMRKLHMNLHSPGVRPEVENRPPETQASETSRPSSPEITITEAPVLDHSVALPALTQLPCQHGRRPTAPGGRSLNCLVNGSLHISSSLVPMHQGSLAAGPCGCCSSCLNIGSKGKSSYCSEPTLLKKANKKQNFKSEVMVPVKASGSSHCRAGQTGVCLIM

[18] = target: T2, Alpha-2A adrenergic receptor (Homo sapiens) (UniProt P08913); details: Compound concentration 10.0 uM
T2 sequence (whole entry): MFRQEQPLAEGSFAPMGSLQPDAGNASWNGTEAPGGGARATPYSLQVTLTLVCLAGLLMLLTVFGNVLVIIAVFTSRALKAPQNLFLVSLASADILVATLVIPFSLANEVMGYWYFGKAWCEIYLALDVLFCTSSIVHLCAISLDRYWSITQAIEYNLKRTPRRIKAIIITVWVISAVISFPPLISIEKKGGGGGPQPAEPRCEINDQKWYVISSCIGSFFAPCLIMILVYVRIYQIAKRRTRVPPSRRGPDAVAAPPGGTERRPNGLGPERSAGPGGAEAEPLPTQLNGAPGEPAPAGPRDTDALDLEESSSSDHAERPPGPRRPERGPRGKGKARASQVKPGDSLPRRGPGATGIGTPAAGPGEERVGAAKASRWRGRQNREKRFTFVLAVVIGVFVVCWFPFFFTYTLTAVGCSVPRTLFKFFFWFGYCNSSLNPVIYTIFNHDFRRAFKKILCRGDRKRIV

[19] = target: Ephrin type-A receptor 2 (Homo sapiens) (UniProt P29317); assay: Inhibition of EphA2(h) at 10.0 µM in the Eurofins Kinase panel; details: Compound concentration 10.0 uM
[20] = target: Rho-associated protein kinase 1 (Homo sapiens) (UniProt Q13464); assay: Inhibition of ROCK-I(h) at 10.0 µM in the Eurofins Kinase panel; details: Compound concentration 10.0 uM
[21] = target: Serine/threonine-protein kinase 32C (Homo sapiens) (UniProt Q86UX6); assay: Inhibition of STK32C(h) at 10.0 µM in the Eurofins Kinase panel; details: Compound concentration 10.0 uM
[22] = target: Serine/threonine-protein kinase D2 (Homo sapiens) (UniProt Q9BZL6); assay: Inhibition of PKD2(h) at 10.0 µM in the Eurofins Kinase panel; details: Compound concentration 10.0 uM
[23] = target: Death-associated protein kinase 2 (Homo sapiens) (UniProt Q9UIK4); assay: Inhibition of DAPK2(h) at 10.0 µM in the Eurofins Kinase panel; details: Compound concentration 10.0 uM
Chain of Death-associated protein kinase 2 (Homo sapiens) (Q9UIK4 whole entry, looked up): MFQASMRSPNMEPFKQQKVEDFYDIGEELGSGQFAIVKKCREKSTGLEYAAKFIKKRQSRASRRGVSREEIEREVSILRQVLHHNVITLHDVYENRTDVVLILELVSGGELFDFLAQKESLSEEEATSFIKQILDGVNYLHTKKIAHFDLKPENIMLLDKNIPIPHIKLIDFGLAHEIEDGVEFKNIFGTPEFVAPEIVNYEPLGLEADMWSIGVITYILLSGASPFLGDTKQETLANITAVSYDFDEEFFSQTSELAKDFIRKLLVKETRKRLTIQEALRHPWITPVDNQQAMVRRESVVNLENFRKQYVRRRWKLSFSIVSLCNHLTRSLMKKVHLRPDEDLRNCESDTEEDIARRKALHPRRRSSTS

[24] = target: Tyrosine-protein kinase receptor UFO (Homo sapiens) (UniProt P30530); assay: Inhibition of Axl(h) at 10.0 µM in the Eurofins Kinase panel; details: Compound concentration 10.0 uM

Chain of Serine/threonine-protein kinase 25 (Homo sapiens) (O00506 whole entry, looked up): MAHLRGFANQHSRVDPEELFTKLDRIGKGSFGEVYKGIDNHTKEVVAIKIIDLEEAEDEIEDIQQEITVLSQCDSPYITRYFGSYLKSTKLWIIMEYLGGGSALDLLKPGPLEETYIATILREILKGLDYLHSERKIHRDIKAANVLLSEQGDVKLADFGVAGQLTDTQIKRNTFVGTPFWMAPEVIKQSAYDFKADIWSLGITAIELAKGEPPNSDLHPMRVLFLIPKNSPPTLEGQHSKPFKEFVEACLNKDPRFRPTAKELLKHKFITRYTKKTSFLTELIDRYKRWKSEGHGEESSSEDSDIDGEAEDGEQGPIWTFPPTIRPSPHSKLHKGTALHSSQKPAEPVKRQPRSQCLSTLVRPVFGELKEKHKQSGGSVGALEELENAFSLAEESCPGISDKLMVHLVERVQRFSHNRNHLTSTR

Compound | inhibition [1] [%] | inhibition [2] [%] | inhibition [3] [%] | inhibition [4] [%] | inhibition [5] [%] | inhibition [6] [%] | inhibition [7] [%] | inhibition [8] [%] | inhibition [9] [%] | inhibition [10] [%] | inhibition [11] [%] | inhibition [12] [%] | inhibition [13] [%] | inhibition [14] [%] | inhibition [15] [%] | inhibition ([16]; Compound concentration 10.0 uM) [%] | inhibition [17] [%] | inhibition [18] [%] | inhibition [19] [%] | inhibition [20] [%] | further results
O=c1n(Cc2cncn2-c2cccc(Cl)c2)nc(-c2ccc(Cl)cc2)n1C[C@H](O)C(F)(F)F | 6.35 | -5.25 | 5.32 | 1.85 | 5.53 | -8.45 | 0.23 | 3.43 | 2.9 | 1.3 | -1.55 | 5.56 | 9.61 | 7.72 | 1 | 7 | 0.71 | 5 | -5.2 | -3.19 | inhibition [21]: -2.95%; inhibition [22]: 1.71%; inhibition [23]: 11.7%; inhibition [24]: 3.23%
C[C@H](O)c1nc(Cn2nc(-c3ccc(Cl)cc3)n(C[C@H](O)C(F)(F)F)c2=O)nn1-c1cccc(Cl)c1 [PECAVAPTAN] | 9.04 | -4.2 | 4.93 | -1.51 | -1.76 | 6.58 | -0.37 | -0.04 | -2.02 | -7.49 | -0.71 | -1.46 | 27.7 | 4.28 | 6 | 43 | -0.43 | 3 | -2 | -2.67 | inhibition ([16]; Compound concentration 0.001 uM): 6%; inhibition ([16]; Compound concentration 0.01 uM): -6%; inhibition ([16]; Compound concentration 0.1 uM): -5%; inhibition ([16]; Compound concentration 1.0 uM): 5%; inhibition [21]: 1.11%; inhibition [22]: 1.59%; inhibition [23]: -2.55%; inhibition [24]: 2.01%
